Laboratory results reported in publication PMC3705364, “Biochemical and Electrophysiological Characterization of Two Sea Anemone Type 1 Potassium Toxins from a Geographically Distant Population of Bunodosoma caissarum” (Marine Drugs, 2013).
Where a SMILES comes first, the peptide text is derived from it. Bridges are numbered along the chain shown (N, C = ends).

How the values were obtained:
Assay type in all cases: cell-based
rKV1.1 = target: T1, rKV1.1 (Rattus norvegicus, UniProt P10499); assay: Two-electrode voltage-clamp, X. laevis oocytes expressing rKV1.1; conditions: mean ± standard error
T1 construct: expressed in transfected cells; host or cells: Xenopus laevis oocytes injected with cRNA
Method: (§1) Stage V–VI of X. laevis oocytes were harvested by partial ovariectomy under anesthesia (3-aminobenzoic acid ethyl ester methanesulfonate salt, 0.5 g/L from Sigma-Aldrich Co., Saint Louis, MO, USA). The oocytes were defolliculated for 2 h by treatment with 2 mg/mL collagenase (Sigma-Aldrich Co., Saint Louis, MO, USA) in Ca^2+ free ND96 solution (in mM: 96 NaCl; 2 KCl; 1 MgCl2; 5 HEPES adjusted pH 7.4). For the expression of KV channels (KV1.1–KV1.6, KV2.1, KV3.1, KV4.2, KV4.3, hERG and the insect channel Shaker IR), the linearized plasmids were transcribed using the T7 or SP6 mMessage-mMachine transcription kit (Ambion, Austin, TX, USA). Oocytes were injected with 50 nL of cRNA at a concentration of 1 ng/nL using a microinjector (Drummond Scientific, Broomall, PA, USA). The oocytes were maintained in a ND96 solution (in mM: 96 NaCl, 2 KCl, 1.8 CaCl2, 2 MgCl2 and 5 HEPES; adjusted pH 7.4), supplemented with 50 µg/mL gentamicin sulfate.
(§2) Two-electrode voltage-clamp recordings were performed at room temperature (18–22 °C) using a Geneclamp 500 amplifier (Molecular Devices, Sunnyvale, CA, USA) controlled by a pClamp data acquisition system (Axon Instruments, Union City, CA, USA). Whole-cell currents from oocytes were recorded from 1 to 3 days after injection. Bath solution was the same ND96 solution described above. Voltage and current electrodes were filled with 3 M KCl. Resistances of both electrodes were kept between 0.8 and 1.0 ΩM. The elicited currents were filtered at 500 Hz using a four-pole lowpass Bessel filter. Leak subtraction was performed using a −P/4 protocol. KV1.1–KV1.6 and Shaker IR currents were evoked by 500 ms depolarizations to 0 mV, followed by a 500 ms pulse to −50 mV, from a holding potential of −90 mV. Current traces of hERG channels were elicited by applying a +40 mV prepulse for 2 s, followed by a step to −120 mV for 2 s. KV3.1, KV 4.2 and KV4.3 currents were elicited by 500 ms pulses to +20 mV from a holding potential of −90 mV. To assess the concentration-response relationships, data were fitted with the Hill equation: y = 100/[1 + (EC50/[toxin])h] (1) where y is the amplitude of the toxin-induced effect, EC50 is the toxin concentration at half maximal efficacy, [toxin] is the toxin concentration and h is the Hill coefficient. In order to investigate the current-voltage relationship, current traces were evoked by 10 mV depolarization steps from a holding potential of −90 mV. […]
(§3) Comparison of two sample means was made using a paired Student’s t test (p < 0.05). […] All data were analyzed using Clampfit 10.3 (Molecular Devices, Sunnyvale, CA, USA) and Origin 7.5 software (Origin Lab., Northampton, MA, USA).

rKV1.2 = target: T2, rKV1.2 (Rattus norvegicus, UniProt P63142); assay: Two-electrode voltage-clamp, X. laevis oocytes expressing rKV1.2
T2 construct: expressed in transfected cells; host or cells: Xenopus laevis oocytes injected with cRNA
Method: as §1, §2, §3

rKV1.6 = target: T3, rKV1.6 (Rattus norvegicus, UniProt P17659); assay: Two-electrode voltage-clamp, X. laevis oocytes expressing rKV1.6; conditions: mean ± standard error
T3 construct: expressed in transfected cells; host or cells: Xenopus laevis oocytes injected with cRNA
Method: as §1, §2, §3

hKV1.3 = hKV1.3 (Homo sapiens, UniProt P22001); assay: Two-electrode voltage-clamp, X. laevis oocytes expressing hKV1.3; set-up: expressed in transfected cells; host or cells: Xenopus laevis oocytes injected with cRNA
Method: as §1, §2, §3

[1] = TEVC, 18–22 °C, ND96 pH 7.4, 500 ms depolarizations to 0 mV from −90 mV, Hill fit, n ≥ 3
[2] = TEVC, 18–22 °C, ND96 pH 7.4, 500 ms depolarizations to 0 mV from −90 mV, Hill fit, mean ± standard error, n ≥ 3

T3 sequence (P17659 whole entry): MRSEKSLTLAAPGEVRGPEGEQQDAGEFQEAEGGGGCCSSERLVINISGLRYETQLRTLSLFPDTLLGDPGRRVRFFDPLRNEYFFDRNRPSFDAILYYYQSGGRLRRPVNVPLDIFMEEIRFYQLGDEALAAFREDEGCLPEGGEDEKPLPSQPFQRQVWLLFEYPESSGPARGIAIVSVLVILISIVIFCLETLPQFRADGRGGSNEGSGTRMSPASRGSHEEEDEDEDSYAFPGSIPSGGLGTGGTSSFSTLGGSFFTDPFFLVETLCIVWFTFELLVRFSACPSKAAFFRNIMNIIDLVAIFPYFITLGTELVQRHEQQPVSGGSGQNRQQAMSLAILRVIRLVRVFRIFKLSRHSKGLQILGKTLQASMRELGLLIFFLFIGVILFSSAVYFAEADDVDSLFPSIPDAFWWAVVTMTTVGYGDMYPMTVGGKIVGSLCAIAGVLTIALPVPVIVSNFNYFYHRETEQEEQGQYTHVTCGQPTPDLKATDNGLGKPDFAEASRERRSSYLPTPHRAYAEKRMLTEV
T2 sequence (P63142 whole entry): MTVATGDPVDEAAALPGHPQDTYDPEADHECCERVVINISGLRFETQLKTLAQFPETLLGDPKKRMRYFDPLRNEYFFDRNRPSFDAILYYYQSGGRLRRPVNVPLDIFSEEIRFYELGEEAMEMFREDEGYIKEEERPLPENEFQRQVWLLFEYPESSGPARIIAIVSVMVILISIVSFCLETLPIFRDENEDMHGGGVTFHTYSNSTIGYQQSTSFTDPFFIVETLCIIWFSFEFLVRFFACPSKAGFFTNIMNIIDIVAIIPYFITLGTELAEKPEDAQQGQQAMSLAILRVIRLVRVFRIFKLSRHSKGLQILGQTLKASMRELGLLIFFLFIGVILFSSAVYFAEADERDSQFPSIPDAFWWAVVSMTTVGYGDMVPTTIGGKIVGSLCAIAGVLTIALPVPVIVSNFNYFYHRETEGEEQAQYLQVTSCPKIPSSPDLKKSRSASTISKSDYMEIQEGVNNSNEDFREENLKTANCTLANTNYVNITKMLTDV
hKV1.3, sequence (P22001 whole entry): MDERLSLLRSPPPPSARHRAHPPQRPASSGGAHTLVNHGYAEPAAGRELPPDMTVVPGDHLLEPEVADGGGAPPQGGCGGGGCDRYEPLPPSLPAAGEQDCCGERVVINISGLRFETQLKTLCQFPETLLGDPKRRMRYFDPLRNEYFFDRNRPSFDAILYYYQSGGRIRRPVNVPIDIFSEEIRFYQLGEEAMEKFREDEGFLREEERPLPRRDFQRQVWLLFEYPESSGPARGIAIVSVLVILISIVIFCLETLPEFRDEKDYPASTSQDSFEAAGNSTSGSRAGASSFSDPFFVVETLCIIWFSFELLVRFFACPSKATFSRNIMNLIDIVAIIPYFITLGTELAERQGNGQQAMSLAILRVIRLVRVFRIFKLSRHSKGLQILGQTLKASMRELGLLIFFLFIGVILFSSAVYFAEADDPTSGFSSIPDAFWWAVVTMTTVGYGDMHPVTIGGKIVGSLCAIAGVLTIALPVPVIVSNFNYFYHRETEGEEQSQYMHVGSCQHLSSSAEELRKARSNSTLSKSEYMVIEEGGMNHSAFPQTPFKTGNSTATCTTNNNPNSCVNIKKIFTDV
T1 sequence (P10499 whole entry): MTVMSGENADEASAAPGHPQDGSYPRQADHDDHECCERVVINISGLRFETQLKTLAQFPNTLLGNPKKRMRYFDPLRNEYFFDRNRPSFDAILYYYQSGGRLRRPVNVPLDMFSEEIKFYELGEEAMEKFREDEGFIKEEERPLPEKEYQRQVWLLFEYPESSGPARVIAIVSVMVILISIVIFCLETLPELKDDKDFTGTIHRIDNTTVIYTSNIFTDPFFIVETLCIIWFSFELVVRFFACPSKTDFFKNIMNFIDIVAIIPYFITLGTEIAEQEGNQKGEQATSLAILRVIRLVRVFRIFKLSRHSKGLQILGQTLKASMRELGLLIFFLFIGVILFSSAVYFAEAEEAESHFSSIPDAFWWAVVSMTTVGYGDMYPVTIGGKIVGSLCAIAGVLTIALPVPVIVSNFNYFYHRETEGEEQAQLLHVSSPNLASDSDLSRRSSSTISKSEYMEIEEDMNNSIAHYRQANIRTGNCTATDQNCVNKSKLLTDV

Work on `CC(C)C[C@@H]1NC(=O)[C@H](CCCCN)NC(=O)[C@H](C)NC(=O)[C@H](Cc2c[nH]cn2)NC(=O)[C@H](CCC(N)=O)NC(=O)[C@@H]2CSSC[C@@H]3NC(=O)[C@H](CC(N)=O)NC(=O)[C@H](C)NC(=O)[C@H](CCCNC(=N)N)NC(=O)[C@H](Cc4ccc(O)cc4)NC(=O)[C@H](CCCCN)NC(=O)[C@H](CCC(N)=O)NC(=O)[C@H](CO)NC(=O)[C@H](CC(N)=O)NC(=O)[C@H](CCCCN)NC(=O)[C@H](CSSC[C@H](NC(=O)[C@H]([C@@H](C)O)NC(=O)[C@H](CCCCN)NC(=O)[C@H](C)NC3=O)C(=O)NCC(=O)N3CCC[C@H]3C(=O)N[C@H](C(=O)O)CSSC[C@H](NC(=O)[C@H](C)N)C(=O)N[C@@H](CCCCN)C(=O)N[C@@H](CC(=O)O)C(=O)NCC(=O)N[C@@H](Cc3ccccc3)C(=O)N3CCC[C@H]3C(=O)N[C@@H]([C@@H](C)O)C(=O)N[C@@H](C)C(=O)N[C@@H]([C@@H](C)O)C(=O)N2)NC(=O)[C@H](CC(N)=O)NC(=O)CNC(=O)[C@H](C(C)C)NC1=O` [BcsTx2] (H-ACKDGFPTATCQHAKLVGNCKNSQKYRANCAKTCGPC-OH; disulfide 2-37, 11-30, 20-34; C-terminus assumed) yielded an inhibition at 3 µM (rKV1.1; 3 µM, n ≥ 3, read-out: inhibition of rKV1.1 current) of 96%, an IC50 (rKV1.1; [1]) of 14.4 ± 2.61 nM and an inhibition at 3 µM (rKV1.2; 3 µM, n ≥ 3, read-out: inhibition of rKV1.2 current) of 100%. The IC50 (rKV1.2; [2]) was 80.4 ± 1.44 nM, the inhibition at 3 µM (rKV1.6; 3 µM, n ≥ 3, read-out: inhibition of rKV1.6 current) was 98% and the IC50 (rKV1.6; [1]) was 7.76 ± 1.9 nM. It also gave an inhibition at 3 µM (hKV1.3; 3 µM, n ≥ 3, read-out: inhibition of hKV1.3 current) of 100% and an IC50 (hKV1.3; [2]) of 13.1 ± 3.29 nM.
